Data as given in patent publication US11173151B2, “Substituted triazole derivatives and uses thereof” (BAYER AKTIENGESELLSCHAFT, priority 2017, dated 2021).

Tests used:
human V2 receptor = target: T1, human V2 receptor (Homo sapiens, UniProt P30518); experiment: Cellular in vitro assay for determining vasopressin receptor activity, V2 receptor cell line (CHO, CRE-luciferase); format: cell-based; conditions: CHO cell line transfected with human V2 receptor; [Arg8]-vasopressin at EC50 concentration, 3 hours; read-out: IC50 hV2
T1 construct: expressed in transfected cells; host or cells: CHO K1 (ATCC) expressing firefly luciferase under a CRE-responsive promoter
Method: (§1) B-1. Cellular In Vitro Assay for Determining Vasopressin Receptor Activity
(§2) The identification of agonists and antagonists of the V1a and V2 vasopressin receptors from humans, rats and dogs as well as the quantification of the activity of the compounds of the invention is carried out using recombinant cell lines. These cell lines originally derive from a hamster's ovary epithelial cell (Chinese Hamster Ovary, CHO K1, ATCC: American Type Culture Collection, Manassas, Va. 20108, USA). The test cell lines constitutively express the human, rat or dog V1a or V2 receptors. In case of the Gαq-coupled V1a receptors, cells are also stably transfected with a modified form of the calcium-sensitive photoproteins aequorin (human and rat V1a) or obelin (dog V1a), which, after reconstitution with the cofactor coelenterazine, emit light when there are increases in free calcium concentrations [Rizzuto R, Simpson A W, Brini M, Pozzan T, Nature 358, 325-327 (1992); Illarionov B A, Bondar V S, Illarionova V A, Vysotski E S, Gene 153 (2), 273-274 (1995)]. The resulting vasopressin receptor cells react to stimulation of the recombinantly expressed V1a receptors by intracellular release of calcium ions, which can be quantified by the resulting photoprotein luminescence. The Gs-coupled V2 receptors are stably transfected into cell lines expressing the gene for firefly luciferase under control of a CRE-responsible promoter. Activation of V2 receptors induces the activation of the CRE-responsive promoter via cAMP increase, thereby inducing the expression of firefly luciferase. The light emitted by photoproteins of V1a cell lines as well as the light emitted by firefly luciferase of V2 cell lines corresponds to the activation or inhibition of the respective vasopressin receptor. The bioluminescence of the cell lines is detected using a suitable luminometer [Milligan G, Marshall F, Rees S, Trends in Pharmacological Sciences 17, 235-237 (1996)].
Vasopressin V2 Receptor Cell Lines:
On the day before the assay, the cells are plated out in culture medium (DMEM/F12, 2% FCS, 2 mM glutamine, 10 mM HEPES) in 384-well microtiter plates and kept in a cell incubator (96% humidity, 5% v/v CO2, 37° C.). On the day of the assay, test compounds in various concentrations and the agonist [Arg^8]-vasopressin at EC50 concentration are added together to the wells, and plates are incubated for 3 hours in a cell incubator. Upon addition of the cell lysis reagent Triton™ and the substrate luciferin, luminescence of firefly luciferase is measured in a luminometer.
(§3) Table 1A below lists individual IC50 values for the compounds of the invention (including racemic mixtures as well as separated enantiomers) that were obtained from cell lines transfected with the human V1a or V2 receptor: […]

human V1a receptor = target: T2, human V1a receptor (Homo sapiens, UniProt P37288); experiment: Cellular in vitro assay for determining vasopressin receptor activity, V1a receptor cell line (CHO, aequorin luminescence); format: cell-based; conditions: for IC50: CHO cell line transfected with human V1a receptor, [Arg]-vasopressin at EC50 concentration, read-out: IC50 hV1a; for ratio IC50 hV2/hV1a: selectivity ratio IC50 hV2 / IC50 hV1a
T2 construct: expressed in transfected cells; host or cells: CHO K1 (ATCC), also stably transfected with a modified aequorin
Method: as §1, §2
Vasopressin V1a Receptor Cell Lines:
On the day before the assay, the cells are plated out in culture medium (DMEM/F12, 2% FCS, 2 mM glutamine, 10 mM HEPES, 5 μg/ml coelenterazine) in 384-well microtiter plates and kept in a cell incubator (96% humidity, 5% v/v CO2, 37° C.). On the day of the assay, test compounds in various concentrations are placed for 10 minutes in the wells of the microtiter plate before the agonist [Arg]-vasopressin at EC50 concentration is added. The resulting light signal is measured immediately in a luminometer.
as §3

T2 sequence (P37288 whole entry): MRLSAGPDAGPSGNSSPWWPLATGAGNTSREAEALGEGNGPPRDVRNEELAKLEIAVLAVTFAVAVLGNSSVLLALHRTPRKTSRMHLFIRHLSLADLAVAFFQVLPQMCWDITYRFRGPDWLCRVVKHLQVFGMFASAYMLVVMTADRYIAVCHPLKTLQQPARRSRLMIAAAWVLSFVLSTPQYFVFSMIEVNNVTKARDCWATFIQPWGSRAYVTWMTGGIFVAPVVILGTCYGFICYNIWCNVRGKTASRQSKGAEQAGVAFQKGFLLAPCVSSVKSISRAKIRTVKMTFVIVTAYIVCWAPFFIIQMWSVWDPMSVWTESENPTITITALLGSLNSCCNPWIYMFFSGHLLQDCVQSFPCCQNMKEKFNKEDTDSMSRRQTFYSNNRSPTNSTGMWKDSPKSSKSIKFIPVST
T1 sequence (P30518 whole entry): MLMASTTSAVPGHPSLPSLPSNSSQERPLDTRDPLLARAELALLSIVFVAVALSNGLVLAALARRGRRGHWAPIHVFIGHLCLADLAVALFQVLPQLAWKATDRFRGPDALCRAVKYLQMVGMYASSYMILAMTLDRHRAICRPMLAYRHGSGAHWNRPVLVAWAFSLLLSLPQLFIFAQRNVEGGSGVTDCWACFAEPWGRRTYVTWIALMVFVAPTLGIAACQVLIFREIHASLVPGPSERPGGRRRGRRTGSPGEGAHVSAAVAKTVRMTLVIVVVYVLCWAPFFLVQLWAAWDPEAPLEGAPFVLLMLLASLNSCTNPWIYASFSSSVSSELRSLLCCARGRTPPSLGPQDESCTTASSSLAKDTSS

Row | Structure (SMILES) | IC50 (human V2 receptor) | IC50 (human V1a receptor) | ratio IC50 hV2/hV1a (human V1a receptor)
1 | CC1CC(C)CN(C(=O)c2ccccc2-n2cnc(Cn3nc(-c4ccc(Cl)cc4)n(C[C@H](O)C(F)(F)F)c3=O)n2)C1 (mixture of isomers) [Example 326, 5-(4-Chlorophenyl)-2-[(1-{2-[(3,5-dimethylpiperidin-1-yl)carbonyl]phenyl}-1H-1,2,4-triazol-3-yl)methyl]-4-[(2S)-3,3,3-trifluoro-2-hydroxypropyl]-2,4-dihydro-3H-1,2,4-triazol-3-one] | 1500 nM | 8.3 nM | 180.7
2 | CC1CCC(C)N1C(=O)c1ccccc1-n1cnc(Cn2nc(-c3ccc(Cl)cc3)n(C[C@H](O)C(F)(F)F)c2=O)n1 (mixture of isomers) [Example 328, 5-(4-Chlorophenyl)-2-[(1-{2-[(2,5-dimethylpyrrolidin-1-yl)carbonyl]phenyl}-1H-1,2,4-triazol-3-yl)methyl]-4-[(2S)-3,3,3-trifluoro-2-hydroxypropyl]-2,4-dihydro-3H-1,2,4-triazol-3-one] | 2150 nM | 7.95 nM | 270.4
3 | CC1CCCC(C)N1C(=O)c1ccccc1-n1cnc(Cn2nc(-c3ccc(Cl)cc3)n(C[C@H](O)C(F)(F)F)c2=O)n1 (mixture of isomers) [Example 337, 5-(4-Chlorophenyl)-2-[(1-{2-[(2,6-dimethylpiperidin-1-yl)carbonyl]phenyl}-1H-1,2,4-triazol-3-yl)methyl]-4-[(2S)-3,3,3-trifluoro-2-hydroxypropyl]-2,4-dihydro-3H-1,2,4-triazol-3-one] | 1080 nM | 23.5 nM | 46.2
4 | CC(C)C(C)NC(=O)c1ccccc1-n1cnc(Cn2nc(-c3ccc(Cl)cc3)n(C[C@H](O)C(F)(F)F)c2=O)n1 (mixture of isomers) [Example 345, 2-[3-({3-(4-Chlorophenyl)-5-oxo-4-[(2S)-3,3,3-trifluoro-2-hydroxypropyl]-4,5-dihydro-1H-1,2,4-triazol-1-yl}methyl)-1H-1,2,4-triazol-1-yl]-N-[(2R)-3-methylbutan-2-yl]benzamide] | 119 nM | 3.2 nM | 37.2
5 | CC1CCCN(C(=O)c2ccccc2-n2cnc(Cn3nc(-c4ccc(Cl)cc4)n(C[C@H](O)C(F)(F)F)c3=O)n2)C1 (mixture of isomers) [Example 351, 5-(4-Chlorophenyl)-2-{[1-(2-{[3-methylpiperidin-1-yl]carbonyl}phenyl)-1H-1,2,4-triazol-3-yl]methyl}-4-[(2S)-3,3,3-trifluoro-2-hydroxypropyl]-2,4-dihydro-3H-1,2,4-triazol-3-one] | 950 nM | 2.7 nM | 351.9
6 | CC1CCCN1C(=O)c1ccccc1-n1cnc(Cn2nc(-c3ccc(Cl)cc3)n(C[C@H](O)C(F)(F)F)c2=O)n1 (mixture of isomers) [Example 355, 5-(4-Chlorophenyl)-2-{[1-(2-{[2-methylpyrrolidin-1-yl]carbonyl}phenyl)-1H-1,2,4-triazol-3-yl]methyl}-4-[(2S)-3,3,3-trifluoro-2-hydroxypropyl]-2,4-dihydro-3H-1,2,4-triazol-3-one] | 635 nM | 1.75 nM | 362.9
7 | O=C(NC1CC1F)c1ccccc1-n1cnc(Cn2nc(-c3ccc(Cl)cc3)n(C[C@H](O)C(F)(F)F)c2=O)n1 (mixture of isomers) [Example 364, 2-[3-({3-(4-Chlorophenyl)-5-oxo-4-[(2S)-3,3,3-trifluoro-2-hydroxypropyl]-4,5-dihydro-1H-1,2,4-triazol-1-yl}methyl)-1H-1,2,4-triazol-1-yl]-N-(2-fluorocyclopropyl)benzamide] | 155 nM | 0.47 nM | 329.8
8 | O=C(NCC(O)C(F)(F)F)c1cccc(Cl)c1-n1cnc(Cn2nc(-c3ccc(Cl)cc3)n(C[C@H](O)C(F)(F)F)c2=O)n1 (mixture of isomers) [Example 367, 3-Chloro-2-[3-({3-(4-chlorophenyl)-5-oxo-4-[(2S)-3,3,3-trifluoro-2-hydroxypropyl]-4,5-dihydro-1H-1,2,4-triazol-1-yl}methyl)-1H-1,2,4-triazol-1-yl]-N-[3,3,3-trifluoro-2-hydroxypropyl]benzamide] | 260 nM | 45 nM | 5.8
9 | O=C(NCC(O)C(F)(F)F)c1cccc(Cl)c1-n1cnc(Cn2nc(-c3ccc(Cl)cc3)n(C[C@@H](O)C(F)(F)F)c2=O)n1 (mixture of isomers) [Example 368, 3-Chloro-2-[3-({3-(4-chlorophenyl)-5-oxo-4-[(2R)-3,3,3-trifluoro-2-hydroxypropyl]-4,5-dihydro-1H-1,2,4-triazol-1-yl}methyl)-1H-1,2,4-triazol-1-yl]-N-[3,3,3-trifluoro-2-hydroxypropyl]benzamide] | 2100 nM | 350 nM | 6.0
10 | O=C(NC1CC1(F)F)c1cccc(Cl)c1-n1cnc(Cn2nc(-c3ccc(Cl)cc3)n(C[C@H](O)C(F)(F)F)c2=O)n1 (mixture of isomers) [Example 371, 3-Chloro-2-[3-({3-(4-chlorophenyl)-5-oxo-4-[(2S)-3,3,3-trifluoro-2-hydroxypropyl]-4,5-dihydro-1H-1,2,4-triazol-1-yl}methyl)-1H-1,2,4-triazol-1-yl]-N-[2,2-difluorocyclopropyl]benzamide] | 710 nM | 15 nM | 47.3
11 | CC1CN(C(=O)c2cccc(Cl)c2-n2cnc(Cn3nc(-c4ccc(Cl)cc4)n(C[C@H](O)C(F)(F)F)c3=O)n2)CCO1 (mixture of isomers) [Example 377, 2-{[1-(2-Chloro-6-{[2-methylmorpholin-4-yl]carbonyl}phenyl)-1H-1,2,4-triazol-3-yl]methyl}-5-(4-chlorophenyl)-4-[(2S)-3,3,3-trifluoro-2-hydroxypropyl]-2,4-dihydro-3H-1,2,4-triazol-3-one] | 8600 nM | 295 nM | 29.2
12 | NC(=O)C1CCCN1C(=O)c1cccc(Cl)c1-n1cnc(Cn2nc(-c3ccc(Cl)cc3)n(C[C@H](O)C(F)(F)F)c2=O)n1 (mixture of isomers) [Example 378, 1-{3-Chloro-2-[3-({3-(4-chlorophenyl)-5-oxo-4-[(2S)-3,3,3-trifluoro-2-hydroxypropyl]-4,5-dihydro-1H-1,2,4-triazol-1-yl}methyl)-1H-1,2,4-triazol-1-yl]benzoyl}-prolinamide] | 2050 nM | 120 nM | 17.1
13 | O=C(c1cccc(Cl)c1-n1cnc(Cn2nc(-c3ccc(Cl)cc3)n(C[C@H](O)C(F)(F)F)c2=O)n1)N1CCC(O)(C(F)(F)F)C1 (mixture of isomers) [Example 379, 2-{[1-(2-Chloro-6-{[hydroxy-3-(trifluoromethyl)pyrrolidin-1-yl]carbonyl}phenyl)-1H-1,2,4-triazol-3-yl]methyl}-5-(4-chlorophenyl)-4-[(2S)-3,3,3-trifluoro-2-hydroxypropyl]-2,4-dihydro-3H-1,2,4-triazol-3-one] | 845 nM | 70.5 nM | –
14 | O=C(c1cccc(Cl)c1-n1cnc(Cn2nc(-c3ccc(Cl)cc3)n(C[C@H](O)C(F)(F)F)c2=O)n1)N1CCOC(C(F)(F)F)C1 (mixture of isomers) [Example 380, 5-(4-Chlorophenyl)-2-{[1-(2-chloro-6-{[2-(trifluoromethyl)morpholin-4-yl]carbonyl}phenyl)-1H-1,2,4-triazol-3-yl]methyl}-4-[(2S)-3,3,3-trifluoro-2-hydroxypropyl]-2,4-dihydro-3H-1,2,4-triazol-3-one] | 4000 nM | 95.5 nM | 41.9
